# Reference: PMC11407758, “Integrated stress response (ISR) activation and apoptosis through HRI kinase by PG3 and other p53 pathway-restoring cancer therapeutics” (Oncotarget, 2024)
# Read-outs that look alike come from different tables or passages of the source.
# Experiments:
# Assay type in all cases: cell-based, human
# p53 protein = assay: Western blot, p53 protein levels
# Description: Cells were treated for 24 h with indicated compounds, concentrations and cell lines. Abbreviations: S.E.: Short exposure; L.E.: Long exposure.
# (§1) After treatment, protein lysates were collected for Western blot analysis. A total of 15 μg of protein was used for SDS-PAGE. After primary and secondary antibody incubations, the signal was detected by a chemiluminescence detection kit, imaged by Syngene (Imgen Technologies). Antibodies for NAG-1 (GDF15) and P53 were from Santa Cruz Biotechnology; for caspase 8, cleaved caspase 8, caspase 9, caspase 3, cleavage PARP, eIF2α, p-eIF2α (Ser51), CHOP, ATF4, DR5, and PUMA were from Cell Signaling Technology. Noxa and p21 were from Calbiochem. Ran was from BD Biosciences.
# [1] = system: SW480 cells carrying a p53-responsive luciferase reporter; assay: p53-responsive reporter assay; settings: 1.11 μM, 6 hour and 15 hour time points
# Description: SW480 cells carrying a p53-responsive luciferase reporter were used for assay of functional restoration of mutant p53. Cells were seeded in 96-well plates (5 × 10^4 cells/well) and were treated with compounds indicated for 6 and 15 h, respectively. Then, D-luciferin was added to each well with final concentration 100 μg/mL, and cells were imaged by using an IVIS Imaging System to detect luciferase activity.
# p53-mutant SW480 human colon cancer cells, stably expressing a p53-responsive luciferase reporter, were used to assay functional restoration p53 pathway-dependent transcription in mutant p53-expressing tumor cells. Cells were seeded in 96-well plates (5 × 10^4 cells/well) and were treated with small-molecule compounds for 6 and 15 h, respectively. Then, D-luciferin was added to each well at a final concentration of 100 μg/mL, and cells were imaged by using an IVIS Imaging System (Xenogen) to detect luciferase activity.
# [2] = system: GCN2, PKR, eIF2α, ATF4, CHOP in HT29 cells; assay: Western blot, ISR kinases / eIF2α / ATF4 / CHOP; settings: HT29, 15 h
# Description: Figure 7 PG3 induces upregulation of ATF4 through ISR via HRI. (A) HT29 cells were treated with PG3, GSK2606414, TG and ONC201 respectively, or co-treatment with PG3/GSK2606414, PG3/TG, and PG3/ONC201 for 15 h. (B) MEF, MEF^PERK−/− and MEF^GCN2−/− cells were treated with PG3 and ONC201 for 16 hours. (C) HT29 cells were transfected with siControl, siPKR, siHRI and siPKR/siHRI for 24 hours and then treated with PG3 for 16 hours. (D) HCT116 p53^−/− cells were transfected with siControl and siHRI for 24 hours and then treated with PG3 for 16 hours. (E) HCT116 p53^−/− cells were treated with PG3 and ONC201 for indicated times. (F) PANC1-sgCtrl, -sgHRI and -sgPKR cell lines were treated with PG3 and imipridones (ONC201, ONC206 and ONC212) for 16 hours. Western blot was performed using indicated antibodies. (G) Proposed model of PG3-induced cell apoptosis through HRI/ATF4/PUMA axis. Abbreviation: L.E.: Long exposure.
# as §1
# Supplementary Figure 2: ROS and NO are not responsible for PG3-induced HRI activation. (A, B) cells were pre-treated
# with ZnPP, L-NMMA, SA and NAC for 2 hours respectively, and then ONC201 or PG3 was added to the medium for 24 hour treatment.
# Western blot was performed using indicated antibodies.
# (1 picture or pasted object on this page, not shown here)
# PUMA = assay: Western blot, PUMA induction; settings: five cell lines, 24 h
# Description: Figure 4 Activation of ATF4 and up-regulation of typical p53 target genes. (A–E) Western blot analysis of p53 protein levels and upregulation of ATF4, PUMA, DR5 and p21. Cells were treated for 24 h with indicated compounds, concentrations and cell lines. Abbreviations: S.E.: Short exposure; L.E.: Long exposure.
# as §1
# TOV-112D (R175H) = assay: Cell viability assay (CellTiterGlo), TOV-112D; settings: for IC50: Homo sapiens, TOV112D, 72 h
# Description: (§2) Figure 1 PG3 inhibits cell proliferation and growth in a p53-indepent manner. (A–E) Cell viability assay, dose response curves and IC50 value measurements in a panel of cancer cell lines and normal cells. Cells were treated with different concentrations of PG3, PG3-Oc (Oc), obatoclax (Ob), prodigiosin (P) or DMSO for 72 h. Luciferase activity was imaged by the IVIS Imaging System after treatment. Cell viability data were normalized to those of DMSO treatment control in each cell line and data analyses were performed using PRISM4 software. IC50 data are expressed as the mean ±SD (normal; n = 3).
# as §2, with “2 p53-dependent inhibition of” for “1 PG3 inhibits”, “is only observed at specific concentrations. (A–J)” for “and growth in a p53-indepent manner. (A–E)”, “ZMC1, CP-313908, APR-246, Ellipticine, Nutalin-3a” for “PG3, PG3-Oc (Oc), obatoclax (Ob), prodigiosin (P)”
# (§3) Cells were seeded in 96-well plates (6 × 10^3 cells/well). Cells were treated with different concentrations of compounds or dimethyl sulfoxide (DMSO) as a control for 72 hours. The cell viability was assessed by CellTiterGlo bioluminescent cell viability assay (Promega), following the manufacturer’s protocol. Bioluminescence imaging was measured using the IVIS imager. The percentage of cell viability (mean ± SEM) at each dose was calculated against the respective DMSO control. The IC50 values were determined from the sigmoidal dose-response curves using GraphPad Prism.
# HCT116 (P53−/−) = assay: Cell viability assay (CellTiterGlo), HCT116 p53-/-; settings: Homo sapiens, HCT-116; 72 h, CellTiterGlo
# Description: as §2
# as §2, with “2 p53-dependent inhibition of” for “1 PG3 inhibits”, “is only observed at specific concentrations. (A–J)” for “and growth in a p53-indepent manner. (A–E)”, “ZMC1, CP-313908, APR-246, Ellipticine, Nutalin-3a” for “PG3, PG3-Oc (Oc), obatoclax (Ob), prodigiosin (P)”
# as §3
smiles,measurement,setting,value
CCc1c(C)[nH]c(/C=C2\N=C(c3ccc[nH]3)C=C2OC)c1C [PG3],wild-type p53 protein level,"p53 protein; HCT116, 24 h",do not upregulate expression
same,endogenous mutant p53 R273H protein level,"p53 protein; HT29, 24 h",no effects on stability
same,endogenous mutant p53 R175H protein level,"p53 protein; TOV-112D, 24 h",no effects on stability
same,exogenous mutant p53 R175H protein level,"p53 protein; engineered HCT116-R175H cells, 24 h",stabilize
same,p53-responsive reporter activity,[1],do not activate reporter activity
same,phosphorylation of GCN2 and PKR,[2],does not increase phosphorylation
same,upregulation of PUMA,PUMA,consistently induce upregulation
same,IC50,"TOV-112D (R175H); CellTiterGlo, read-out: IC50 values, TOV-1120 (R175H) (converted)",126 nM
same,IC50,"TOV-112D (R175H); unit inferred, 'within the nanomolar range', read-out: IC50 value, TOV-112D",120 nM
same,fold less potent than PG3-Oc,TOV-112D (R175H); TOV-112D,3.3 fold
same,IC50,HCT116 (P53−/−),52 nM
